Common to all, as to type: functional
One test has as its target Lysine--tRNA ligase (Plasmodium falciparum (isolate 3D7), UniProt Q8IDJ8). Kind of test: MMV: KRS recombinant Plasmodium falciparum Lysyl-tRNA-synthetase, assay with yeast tRNA, ATP, and lysine and 3 uM MMV malaria box compound, assay read out with kinase glo as % inhibition.
The target of test [1] is T1, Calcium-dependent protein kinase 4 (Plasmodium falciparum (isolate 3D7), UniProt Q8IBS5).
T1 sequence (Q8IBS5 whole entry): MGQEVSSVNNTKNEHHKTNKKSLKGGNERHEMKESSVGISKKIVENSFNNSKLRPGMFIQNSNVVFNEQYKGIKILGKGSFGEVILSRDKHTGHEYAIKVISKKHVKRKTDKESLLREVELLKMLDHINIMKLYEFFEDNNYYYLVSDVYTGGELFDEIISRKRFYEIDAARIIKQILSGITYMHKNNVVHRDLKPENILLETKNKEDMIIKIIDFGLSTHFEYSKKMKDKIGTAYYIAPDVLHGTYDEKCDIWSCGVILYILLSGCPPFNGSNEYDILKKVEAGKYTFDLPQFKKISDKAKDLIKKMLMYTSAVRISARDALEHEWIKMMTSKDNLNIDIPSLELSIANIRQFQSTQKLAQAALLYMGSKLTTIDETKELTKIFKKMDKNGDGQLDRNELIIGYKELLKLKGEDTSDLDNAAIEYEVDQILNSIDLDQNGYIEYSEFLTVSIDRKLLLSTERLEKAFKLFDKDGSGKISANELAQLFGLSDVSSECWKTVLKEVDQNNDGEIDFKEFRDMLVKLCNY
Kind of test: MMV: CDPK4 Protein kinase inhibition assay using recombinant PfCDPK4, syntide2 peptide substrate, ATP and KinaseGlo to measure % inhibition at 1 uM MMV box compound. (In general: Kinase-Glo reads ATP consumption through a luciferase reaction.)

The target of test [2] is Calcium-dependent protein kinase 1 (Plasmodium falciparum, UniProt P62344). Kind of test: MMV: CDPK1 Protein kinase inhibition assay using recombinant PfCDPK1, syntide 2 peptide substrate, ATP and KinaseGlo to measure % inhibition at 1 uM MMV box compound.
The target in test [3] is T2, Cdk-related protein kinase 6 (Plasmodium falciparum, UniProt O77239).
T2 sequence (O77239 whole entry): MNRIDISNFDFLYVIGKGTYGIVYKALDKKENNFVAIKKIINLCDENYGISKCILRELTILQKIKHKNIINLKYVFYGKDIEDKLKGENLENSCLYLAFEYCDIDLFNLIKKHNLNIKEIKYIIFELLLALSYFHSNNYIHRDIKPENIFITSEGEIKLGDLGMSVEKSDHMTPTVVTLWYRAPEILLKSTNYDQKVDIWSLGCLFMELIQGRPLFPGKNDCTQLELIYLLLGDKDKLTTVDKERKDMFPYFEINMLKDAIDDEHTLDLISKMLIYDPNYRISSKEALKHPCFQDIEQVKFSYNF
Kind of test: Final concentrations were 1.5 uM ATP, 5 mM MnCl2, and 15 ug/ml PK6 in a buffer of 100 mM Tris-HCl (pH 7.5). 50 ug/mL MBP was provided as the substrate; 10 uM staurosporine was used as a control inhibitor. Incubation time was 3 hours and 40 minutes.The catalytic activity of each kinase was considered proportional to ATP consumed, as determined from measurements of residual [ATP] with the luciferase-based reagent Kinase-Glo (Promega) following incubation. Luminescence (proportional to residual [ATP]) was measured on the plate readers FLx800 (BioTek Instruments, Winooski, VT, USA) and MicroBeta2.

For test [4], the target named is T3, Mitogen-activated protein kinase (Plasmodium falciparum, UniProt Q25917).
T3 sequence (Q25917 whole entry): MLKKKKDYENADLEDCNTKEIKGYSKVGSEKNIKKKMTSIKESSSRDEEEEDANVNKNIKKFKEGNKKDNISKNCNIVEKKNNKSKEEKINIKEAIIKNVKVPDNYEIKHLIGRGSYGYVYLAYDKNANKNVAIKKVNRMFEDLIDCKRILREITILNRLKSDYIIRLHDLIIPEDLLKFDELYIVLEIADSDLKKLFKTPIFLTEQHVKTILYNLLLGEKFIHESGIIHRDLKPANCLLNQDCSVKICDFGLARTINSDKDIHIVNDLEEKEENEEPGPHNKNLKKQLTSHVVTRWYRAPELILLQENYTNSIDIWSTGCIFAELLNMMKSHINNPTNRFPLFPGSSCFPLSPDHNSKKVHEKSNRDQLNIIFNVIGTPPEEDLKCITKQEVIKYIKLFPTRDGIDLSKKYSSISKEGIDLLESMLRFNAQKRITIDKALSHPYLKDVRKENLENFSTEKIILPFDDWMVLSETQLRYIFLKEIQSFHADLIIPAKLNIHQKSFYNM
Kind of test: Final concentrations were 1 uM ATP, 0.5 mM DTT, 1 mM MgCl2, 0.5 mg/mL BSA, and 10 ug/ml MAP2 in a buffer of 50 mM HEPES (pH 7.0). 0.5 mg/mL histone III-S served as the substrate (13); 100 uM AMP-PNP, an ATP analog, was used as a control inhibitor. Incubation time was 4 hours.

Another test has as its target T4, Proline--tRNA ligase (Plasmodium falciparum (isolate 3D7), UniProt Q8I5R7).
T4 sequence (Q8I5R7 whole entry): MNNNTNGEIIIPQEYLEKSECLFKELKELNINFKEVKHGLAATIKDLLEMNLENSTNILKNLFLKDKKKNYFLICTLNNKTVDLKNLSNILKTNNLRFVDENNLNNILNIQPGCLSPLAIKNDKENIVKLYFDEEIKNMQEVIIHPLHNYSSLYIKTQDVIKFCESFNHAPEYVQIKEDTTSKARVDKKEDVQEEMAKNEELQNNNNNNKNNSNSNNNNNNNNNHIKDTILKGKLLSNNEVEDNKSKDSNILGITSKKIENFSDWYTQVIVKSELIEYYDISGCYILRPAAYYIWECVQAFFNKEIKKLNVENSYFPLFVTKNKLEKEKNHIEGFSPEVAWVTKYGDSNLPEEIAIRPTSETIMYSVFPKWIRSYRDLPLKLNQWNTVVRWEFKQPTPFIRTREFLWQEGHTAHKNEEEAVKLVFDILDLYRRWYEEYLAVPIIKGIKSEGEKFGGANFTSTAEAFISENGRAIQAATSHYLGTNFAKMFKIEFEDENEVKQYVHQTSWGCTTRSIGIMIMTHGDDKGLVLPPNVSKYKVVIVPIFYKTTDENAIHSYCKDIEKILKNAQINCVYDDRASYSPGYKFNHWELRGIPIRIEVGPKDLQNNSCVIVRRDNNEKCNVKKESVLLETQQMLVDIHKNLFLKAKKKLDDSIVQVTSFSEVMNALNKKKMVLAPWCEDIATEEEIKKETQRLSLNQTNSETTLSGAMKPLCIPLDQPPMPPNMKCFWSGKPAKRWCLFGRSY
Kind of test: MMV: ProRS recombinant Plasmodium falciparum Prolyl-tRNA-synthetase, assay with yeast tRNA, ATP, and proline and 3 uM MMV malaria box compound, assay read out with kinase glo as % inhibition.

Test [5] addresses T5, Putative uncharacterized protein pk7 (Plasmodium falciparum, UniProt O96214).
T5 sequence (O96214 whole entry): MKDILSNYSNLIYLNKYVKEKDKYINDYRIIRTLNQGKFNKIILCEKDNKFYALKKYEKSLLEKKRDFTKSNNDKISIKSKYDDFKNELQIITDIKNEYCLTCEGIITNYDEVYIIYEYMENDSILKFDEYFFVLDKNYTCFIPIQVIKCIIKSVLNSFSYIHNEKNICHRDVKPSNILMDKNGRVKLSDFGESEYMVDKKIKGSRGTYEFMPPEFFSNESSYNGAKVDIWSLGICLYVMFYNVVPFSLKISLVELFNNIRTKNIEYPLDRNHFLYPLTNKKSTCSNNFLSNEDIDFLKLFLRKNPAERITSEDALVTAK
Nature of the test: Final concentrations were 1 uM ATP, 2 mM DTT, 20 mM MgCl2, 2 mM MnCl2, 0.01% BSA, and 6 ug/ml PK7, in a buffer of 20 mM Tris-HCl (pH 7.5). The enzyme itself was the only substrate present (since autophosphorylation occurs); 100 uM 1NA-PP1 was used as a control inhibitor. Incubation time was 3 hours.

pIC50: −log10 of the molar value.

Chain of Lysine--tRNA ligase (Q8IDJ8 whole entry): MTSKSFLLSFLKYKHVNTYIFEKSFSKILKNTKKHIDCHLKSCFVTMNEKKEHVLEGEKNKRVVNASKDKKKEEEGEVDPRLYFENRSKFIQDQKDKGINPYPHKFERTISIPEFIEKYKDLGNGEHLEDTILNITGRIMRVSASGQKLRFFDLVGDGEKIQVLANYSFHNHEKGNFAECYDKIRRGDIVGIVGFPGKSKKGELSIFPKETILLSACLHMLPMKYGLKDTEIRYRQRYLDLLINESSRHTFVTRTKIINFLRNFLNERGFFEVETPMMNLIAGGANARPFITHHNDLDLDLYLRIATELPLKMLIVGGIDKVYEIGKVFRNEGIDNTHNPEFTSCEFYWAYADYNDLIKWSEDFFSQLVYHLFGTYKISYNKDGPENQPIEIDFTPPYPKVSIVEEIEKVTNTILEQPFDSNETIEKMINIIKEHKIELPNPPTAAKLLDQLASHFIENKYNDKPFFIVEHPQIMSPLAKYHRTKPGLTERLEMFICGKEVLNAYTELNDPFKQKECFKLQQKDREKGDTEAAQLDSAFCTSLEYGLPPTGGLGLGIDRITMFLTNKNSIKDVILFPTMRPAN
Chain of Calcium-dependent protein kinase 1 (P62344 whole entry): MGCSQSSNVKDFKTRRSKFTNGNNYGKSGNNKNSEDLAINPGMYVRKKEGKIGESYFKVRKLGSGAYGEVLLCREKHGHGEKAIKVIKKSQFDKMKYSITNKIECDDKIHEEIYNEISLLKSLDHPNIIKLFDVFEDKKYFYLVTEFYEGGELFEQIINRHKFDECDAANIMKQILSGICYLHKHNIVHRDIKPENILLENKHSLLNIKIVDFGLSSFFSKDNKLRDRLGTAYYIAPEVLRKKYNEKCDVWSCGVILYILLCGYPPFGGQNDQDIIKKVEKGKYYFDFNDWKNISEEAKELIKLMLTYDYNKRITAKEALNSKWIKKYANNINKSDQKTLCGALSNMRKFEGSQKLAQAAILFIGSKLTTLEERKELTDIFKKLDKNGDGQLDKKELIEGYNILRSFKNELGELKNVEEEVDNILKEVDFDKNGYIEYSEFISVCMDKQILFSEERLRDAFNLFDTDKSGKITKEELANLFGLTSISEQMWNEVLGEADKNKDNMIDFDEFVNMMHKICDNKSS

Usually pIC50 stands for the negative decadic logarithm of the IC50, by convention in mol/L. For the compound `COc1ccc2c(c1)C1(Nc3ccccc3-c3nc4ccccc4n31)C(=O)N2` (stereo not given), the pIC50 is less than 5.60 on Lysine--tRNA ligase; less than 6.00 in test [1]; less than 6.00 in test [2]; less than 6.00 in test [3]; less than 6.00 in test [4]; less than 5.60 at Proline--tRNA ligase. The same compound gave a pIC50 in test [5] of less than 6.00.

For `CCOc1c(Cl)cc(CNCC(O)c2ccccc2)cc1OC` (stereo not given), the pIC50 is less than 5.60 at Lysine--tRNA ligase; less than 6.00 in test [1]; less than 6.00 in test [2]; less than 6.00 in test [3]; less than 6.00 in test [4]; less than 5.60 at Proline--tRNA ligase. In addition, in test [5], the pIC50 is less than 6.00.

As to `CC1(c2ccccc2)Nc2ccccc2-c2nc3ccccc3n21` (stereo not given), the pIC50 was less than 5.60 at Lysine--tRNA ligase; less than 6.00 in test [1]; less than 6.00 in test [2]; less than 6.00 in test [3]; less than 6.00 in test [4]; less than 5.60 at Proline--tRNA ligase. Further, the pIC50 in test [5] was less than 6.00.

Regarding `O=C(Nc1ccc(Br)cc1)Nc1cccc(Cl)c1`, the negative logarithm of the IC50 (pIC50) is less than 5.60 at Lysine--tRNA ligase; less than 6.00 in test [1]; less than 6.00 in test [2]; less than 6.00 in test [3]; less than 6.00 in test [4]; less than 5.60 at Proline--tRNA ligase. In test [5], this compound gave a pIC50 of less than 6.00.

For `COc1ccc2nc(C)cc(Nc3ccc(Cl)cc3)c2c1`, the negative-log IC50 (pIC50) is less than 5.60 on Lysine--tRNA ligase; less than 6.00 in test [1]; less than 6.00 in test [2]; less than 6.00 in test [3]; less than 6.00 in test [4]; less than 5.60 at Proline--tRNA ligase. Also, the negative-log IC50 (pIC50) in test [5] is less than 6.00.

Consider `O=C(Nc1ccc(CN2CCOCC2)cc1)c1ccc(-c2cc(Cl)ccc2Cl)o1`, for which the pIC50 is less than 5.60 on Lysine--tRNA ligase; less than 6.00 in test [1]; less than 6.00 in test [2]; less than 6.00 in test [3]; less than 6.00 in test [4]; less than 5.60 on Proline--tRNA ligase. Further, the pIC50 in test [5] was less than 6.00.

Take `Cc1cc(Nc2cccc(F)c2)nc(NCc2ccccc2)n1`: the pIC50 on Lysine--tRNA ligase was less than 5.60; in test [1] it was less than 6.00; in test [2], less than 6.00; in test [3] it was less than 6.00; in test [4], less than 6.00; on Proline--tRNA ligase it was less than 5.60. Also, in test [5], the pIC50 is less than 6.00.

On to `COCCn1c(C)nc2ccccc2c1=O`, for which the pIC50 at Lysine--tRNA ligase was less than 5.60; in test [1], less than 6.00; in test [2], less than 6.00; in test [3], less than 6.00; in test [4], less than 6.00; at Proline--tRNA ligase, less than 5.60. This compound also had a pIC50 in test [5] of less than 6.00.

For the compound `O=C(NC1CCN(Cc2ccccc2)CC1)c1cc(-c2cccnc2)nc2ccc(Cl)cc12`, the pIC50 on Lysine--tRNA ligase is less than 5.60; in test [1] it was less than 6.00; in test [2], less than 6.00; in test [3] it was less than 6.00; in test [4], less than 6.00; on Proline--tRNA ligase, less than 5.60. This compound also had a pIC50 in test [5] of less than 6.00.

As to `COc1ccc(-c2nonc2NC(=O)c2cccc(Cl)c2)cc1OC`, the pIC50 at Lysine--tRNA ligase is less than 5.60; in test [1], less than 6.00; in test [2], less than 6.00; in test [3], less than 6.00; in test [4], less than 6.00; on Proline--tRNA ligase, less than 5.60. In test [5], the negative logarithm of the IC50 (pIC50) was less than 6.00.

As for `O=C1CC(O)(C(F)(F)C(F)(F)F)Oc2ccccc21` (stereo not given), the negative logarithm of the IC50 (pIC50) at Lysine--tRNA ligase was less than 5.60; in test [1], less than 6.00; in test [2], less than 6.00; in test [3], less than 6.00; in test [4] it was less than 6.00; on Proline--tRNA ligase, less than 5.60. In test [5], this compound had a pIC50 of less than 6.00.

Turning to `COc1ccc(Nc2nc(NCc3ccccc3)c3ccccc3n2)cc1`, the pIC50 was less than 5.60 at Lysine--tRNA ligase; less than 6.00 in test [1]; less than 6.00 in test [2]; less than 6.00 in test [3]; less than 6.00 in test [4]; less than 5.60 at Proline--tRNA ligase. Also, the pIC50 in test [5] was less than 6.00.

In the case of `CCCCc1c(C)nc2c(OC)cccc2c1O`, the pIC50 on Lysine--tRNA ligase was less than 5.60; in test [1], less than 6.00; in test [2], less than 6.00; in test [3], less than 6.00; in test [4], less than 6.00; at Proline--tRNA ligase, less than 5.60. This compound also had a pIC50 in test [5] of less than 6.00.

As to `CCOC(=O)C1CCN(C(=O)CN2C(=O)c3ccccc3C2c2c[nH]c3ccccc23)CC1` (stereo not given), the negative-log IC50 (pIC50) at Lysine--tRNA ligase is less than 5.60; in test [1], less than 6.00; in test [2] it was less than 6.00; in test [3], less than 6.00; in test [4], less than 6.00; at Proline--tRNA ligase it was less than 5.60. The compound further showed a negative-log IC50 (pIC50) in test [5] of less than 6.00.

On to `CCOc1ccc(CCNC(=O)c2cccs2)cc1OCC`, for which the pIC50 on Lysine--tRNA ligase was less than 5.60; in test [1], less than 6.00; in test [2], less than 6.00; in test [3] it was less than 6.00; in test [4] it was less than 6.00; on Proline--tRNA ligase it was less than 5.60. In addition, the negative logarithm of the IC50 (pIC50) in test [5] is less than 6.00.
